In data set [1] the target is T1, human RNR (purified R1 and R2 subunits) (Homo sapiens, UniProt P23921+P31350).
T1 construct: made in house; host or cells: Escherichia coli BL21(λDE3)pLysS, plasmids pETR1 and pETR2 (pET3a backbone)
T1 sequence (P23921 1-792): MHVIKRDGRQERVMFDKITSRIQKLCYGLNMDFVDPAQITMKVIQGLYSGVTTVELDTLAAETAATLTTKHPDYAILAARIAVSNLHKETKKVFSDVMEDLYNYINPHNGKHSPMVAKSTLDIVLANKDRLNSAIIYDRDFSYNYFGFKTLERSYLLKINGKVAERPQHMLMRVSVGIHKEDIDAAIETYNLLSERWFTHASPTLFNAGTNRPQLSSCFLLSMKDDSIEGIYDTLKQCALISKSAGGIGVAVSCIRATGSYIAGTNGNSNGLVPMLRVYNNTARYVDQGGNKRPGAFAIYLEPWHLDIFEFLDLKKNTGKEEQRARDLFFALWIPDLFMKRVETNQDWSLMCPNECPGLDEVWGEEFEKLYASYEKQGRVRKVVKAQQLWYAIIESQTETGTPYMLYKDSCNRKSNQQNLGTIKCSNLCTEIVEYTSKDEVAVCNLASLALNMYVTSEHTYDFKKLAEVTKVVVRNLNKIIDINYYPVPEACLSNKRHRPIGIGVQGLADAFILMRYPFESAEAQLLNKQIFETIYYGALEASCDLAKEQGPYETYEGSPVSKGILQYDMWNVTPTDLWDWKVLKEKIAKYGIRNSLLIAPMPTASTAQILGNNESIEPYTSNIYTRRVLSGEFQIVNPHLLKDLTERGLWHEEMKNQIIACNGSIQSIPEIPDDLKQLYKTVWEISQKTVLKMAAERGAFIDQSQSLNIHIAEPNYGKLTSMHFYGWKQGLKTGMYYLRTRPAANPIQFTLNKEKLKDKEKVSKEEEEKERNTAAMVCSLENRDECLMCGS
T1 sequence (P31350 1-389): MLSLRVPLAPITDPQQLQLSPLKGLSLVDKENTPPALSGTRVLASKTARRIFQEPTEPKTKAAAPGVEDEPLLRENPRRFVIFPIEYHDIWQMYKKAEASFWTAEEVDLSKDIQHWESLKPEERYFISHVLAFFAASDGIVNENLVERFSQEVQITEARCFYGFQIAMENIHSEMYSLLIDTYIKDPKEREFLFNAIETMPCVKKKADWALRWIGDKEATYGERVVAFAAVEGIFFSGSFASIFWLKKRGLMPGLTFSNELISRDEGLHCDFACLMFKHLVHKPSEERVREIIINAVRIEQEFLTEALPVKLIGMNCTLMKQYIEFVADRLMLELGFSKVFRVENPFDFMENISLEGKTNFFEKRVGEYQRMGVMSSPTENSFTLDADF
Nature of the data set: In vitro measurement of human RNR inhibitory activity (conversion of CDP to dCDP, HPLC). The data set is classed as biochemical. Conditions: 100 μM CDP, 37° C., 30 minutes, read-out: RNR Inhibition (IC50).

Data set [2] deals with HeLa S3 cells. Kind of data set: Test for growth inhibition of HeLa S3 cells. The data set is classed as cell-based.
Data set [3] concerns human ovary cancer A2780 cells. Kind of data set: Antineoplastic effect against human ovary cancer A2780 cells transplanted to nude mice. The data set is classed as in vivo, nude mice BALB/cAJcl-nu. The following applies: Mus musculus, read-out: Antitumor activity T/C. An excerpt:
Antineoplastic Effect Against Human Ovary Cancer A2780 Cells
2 mm cubes (tumor fragments of 8 mm^3) of human ovary cancer A2780 cells were subcutaneously transplanted to nude mice BALB/cAJcl-nu (CLEA JAPAN) in the abdomens. When the tumor volume reached to from 50 to 300 mm^3 after the transplantation, the mice were arbitrarily divided into groups each consisting of 5 mice, and intraperitoneally administered with a drug solution once a day for 5 days. After weighing compounds, the drug solution was prepared before use by dissolving the drug in 99.5% ethanol (final concentration: 5%, analytical grade, Kanto Kagaku) or N,N-dimethylacetamide (final concentration: 5%, analytical grade, Kanto Kagaku), adding CREMOPHOR EL (a derivative of caster oil and ethylene oxide, final concentration: 10%, Sigma Chemical) to the solution, and suspending the solution in physiological saline (Otsuka Physiological Saline for Injection, Otsuka Pharmaceutical). For evaluation of the effect, a tumor volume was calculated in accordance with Equation 1, a ratio of tumor volume (V) after the administration of drug solution to tumor volume (V0) before the administration of drug solution was calculation (V/V0), and the ratio was compared with that for the untreated group to determine T/C (Equation 2). In the table, administration dose, T/C and evaluation day are shown. [formula]

The subject of data set [4] is human lung cancer Lu-65 cells. Nature of the data set: Antineoplastic effect against human lung cancer Lu-65 cells transplanted to nude mice. Conditions: Lu-65 s.c. in nude mice; 1000 (500 × 2) mg/kg/day intraperitoneally twice a day for 5 days; evaluation day 7. The data set is classed as in vivo, nude mice BALB/cAJcl-nu. An excerpt: Antineoplastic Effect Against Human Lung Cancer Lu-65 Cells
2 mm cubes (tumor fragments of 8 mm^3) of human lung cancer Lu-65 cells were subcutaneously transplanted to nude mice BALB/cAJcl-nu (CLEA JAPAN) on their abdomens. When the tumor volume reached to from 50 to 300 mm^3 after the transplantation, the mice were arbitrarily divided into groups each consisting of 5 mice, and intraperitoneally administered with a drug solution twice a day for 5 days. After weighing compounds, the drug solution was prepared before use by dissolving the drug in 99.5% ethanol (final concentration: 5%, analytical grade, Kanto Kagaku), adding CREMOPHOR EL (a derivative of caster oil and ethylene oxide, final concentration: 10%, Sigma Chemical) to the solution, and suspending the solution in physiological saline (Otsuka Physiological Saline for Injection, Otsuka Pharmaceutical). For evaluation of the effect, a tumor volume was calculated in accordance with Equation 1, a ratio of tumor volume (V) after the administration of drug solution to tumor volume (V0) before the administration of drug solution was calculated (V/V0), and the ratio was compared with that for the untreated group to determine T/C (Equation 2). [formula]

Where [5] appears, read: Homo sapiens, HeLa S3, 72 h, HeLa S3 cells, 72 hours with test compound, Cell Proliferation Kit II, read-out: Cell growth inhibition (IC50).
[6] abbreviates: ip, 168 h, A2780 s.c. in nude mice, 500 mg/kg/day intraperitoneally once a day for 5 days, evaluation day 7.
The mark [7] stands for this setting: ip, 96 h, A2780 s.c. in nude mice, 500 mg/kg/day intraperitoneally once a day for 5 days, evaluation day 4.

Like-named read-outs stand apart in the source and are kept apart here.

As for `Oc1ccc(SCCOCCSc2ccc(O)c(F)c2)cc1F` [Compound 190], the melting point (usually the temperature of the solid-liquid transition) was 87 to 88 °C. In addition, the IC50 (in general, the concentration at which inhibition is half-maximal) in data set [1] was determined as 1380 nM. The 50% inhibitory concentration (IC50) in data set [2] (setting [5]) turned out to be 16.9 µM.
In turn, `NC(=O)CN(CCSc1ccc(O)cc1)CCSc1ccc(O)cc1` [Compound 97] registered a melting point of 105 to 106 °C. In data set [2] (HeLa S3 cells, 72 hours with test compound, Cell Proliferation Kit II, read-out: Cell growth inhibition (IC50)), the half-inhibitory concentration (IC50) was 0.88 µM. Also, the response vs control in vivo at 500 mg/kg/day in data set [3] (setting [6]) is 43%.
For `Oc1ccc(SCCOCCSc2ccc(O)cc2)cc1` [Compound 27], the IC50 in data set [1] stood at 500 nM; in data set [2] (Homo sapiens, HeLa S3, 72 h, read-out: Cell growth inhibition (IC50, μM)) it was 1.53 µM. Moreover, the response vs control in vivo at 500 mg/kg/day in data set [3] (A2780, ip, 168 h) is 46%. The “Antitumor activity T/C” value in data set [4] is given as 0.25.
Consider `NC(=O)CCN(CCSc1ccc(O)cc1)CCSc1ccc(O)cc1` [Compound 78], for which the IC50 in data set [1] was determined as 310 nM; in data set [2] (setting [5]), 1.61 µM. The response vs control in vivo at 500 mg/kg/day in data set [3] (setting [7]) was found to be 53%.
For the compound `CCCN(CCSc1ccc(O)cc1)CCSc1ccc(O)cc1` [Compound 72], the 50% inhibitory concentration (IC50) in data set [1] was 1190 nM; in data set [2] (setting [5]) it was 2.18 µM. In data set [3] (setting [7]), the response vs control in vivo at 500 mg/kg/day came to 50%.
As for `O=C(CN(CCSc1ccc(O)cc1)CCSc1ccc(O)cc1)Nc1ncccn1` [Compound 211], the IC50 in data set [1] stood at 3240 nM; in data set [2] (setting [5]), 3.04 µM. The response vs control in vivo at 500 mg/kg/day in data set [3] (ip, 216 h, A2780 s.c. in nude mice, 500 mg/kg/day intraperitoneally once a day for 5 days, evaluation day 9) was 37%.
With `NC(=O)C1CCCCN1C(=O)CN(CCSc1ccc(O)cc1)CCSc1ccc(O)cc1` (stereo not shown) [Compound 209], the IC50 amounted to 2670 nM in data set [1] and 3.09 µM in data set [2] (setting [5]). For the same compound, in data set [3] (setting [6]), the response vs control in vivo at 500 mg/kg/day is 50%.
The compound `Oc1ccc(SCCN(CCSc2ccc(O)cc2)Cc2ccccn2)cc1` [Compound 100] registered a melting point of 80 to 81 °C. In addition, in data set [1], the IC50 was found to be 1580 nM. Besides, the IC50 in data set [2] (setting [5]) came out at 4.97 µM.

For the origin of these results see patent US6608061B2, “Bisaryl compound and medicament for cancer treatment comprising the same” (Kyoma Hakko Kogyo Co., Ltd., priority 1997, dated 2003).
